Reference: PubChem BioAssay (NCI)
Values joined by “and” are separate entries in the source; they are usually repeats but may differ in a detail not shown here. Equal values may be shown once.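 In this assay, cells in 96-well plates receive the compound at five concentrations for 48 hours. Endpoints are linearly interpolated between the surrounding concentrations. GI50: concentration for 50% inhibition of growth. TGI: concentration producing complete growth inhibition.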

Experiments:
Assay in all cases: DTP human tumour cell line panel, 48 h
[1] = test system: HS 578T breast
[2] = test system: K-562 leukemia
[3] = test system: M14 melanoma
[4] = test system: MALME-3M melanoma
[5] = test system: NCI-H23 lung
[6] = test system: SK-MEL-28 melanoma
[7] = test system: SR leukemia
[8] = test system: T-47D breast
[9] = test system: UACC-62 melanoma
[10] = test system: UO-31 renal

Row | SMILES | GI50 [1] [µM] | TGI [1] [µM] | GI50 [2] [µM] | TGI [2] [µM] | GI50 [3] [µM] | TGI [3] | GI50 [4] [µM] | TGI [4] | GI50 [5] [µM] | TGI [5] | GI50 [6] [µM] | TGI [6] | GI50 [7] [µM] | TGI [7] [µM] | GI50 [8] [µM] | TGI [8] [µM] | GI50 [9] [µM] | TGI [9] | GI50 [10] [µM] | TGI [10]
1 | COc1cc(-c2cc(/C=C/C(=O)c3ccc4c(c3)OCO4)[nH]n2)cc(OC)c1OC | 3.71 | 78.7 | 3.2 | 9.81 | 3.86 | > 100 µM | 4.42 | 20.8 µM | 20.2 | > 100 µM | 2.48 | 7.34 µM | 0.552 | > 100 | 2.51 | 17 | 4.67 | > 100 µM | 1.91 | 5.44 µM
2 | COc1ccc2c(CC(=O)O)cc(=O)oc2c1 | – | > 100 | – | > 100 | – | > 100 µM | – | > 100 µM | – | > 100 µM | – | > 100 µM | – | > 100 | – | > 100 | – | > 100 µM | – | > 100 µM
3 | COc1ccc(-c2cc(-c3ccc(O)cc3)nc3nc(=S)[nH]c(N)c23)cc1 | 20.6 | 48.4 | 16.9 | > 100 | 19.7 | 35.4 µM | 17.6 | 38.7 µM | 25 | 50.1 µM | 66.8 | > 100 µM | 6.94 | > 100 | 14.3 | 80.1 | 14.7 | 30.3 µM | 13.2 | 44.9 µM
4 | CCc1ccc(CCC(=O)Nc2ncc(Cc3cc(Cl)ccc3Cl)s2)o1 | 1.29 | 5.96 | 0.242 | > 50 | 0.721 | > 50 µM | 1.38 | > 50 µM | 2.49 | > 50 µM | 2.75 | > 50 µM | 0.22 | 7.92 | 1.86 | > 50 | 1.49 | > 50 µM | 1.86 | 22.5 µM
5 | NC(=O)c1nnn(Cc2cc(Cl)c(C(=O)c3ccc(Cl)cc3)c(Cl)c2)c1N | – | > 64.3 | 2.19 | > 70.2 | > 9.09 | > 9.09 µM and 36.7 µM | > 9.09 | > 9.09 µM and 44.1 µM | > 9.09 | > 9.09 µM and 43 µM | > 9.09 | > 9.09 µM and 44.6 µM | 21.7 | > 100 | – | > 51.6 | > 9.09 | > 9.09 µM and 36.4 µM | > 9.09 | > 9.09 µM and 42.1 µM
6 | CCOC(=O)c1ccc2c(c1)[n+](=O)c(C(=O)c1ccc3ccccc3c1)c(C(F)(F)F)n2[O-] | 1.57 | 3.62 | 0.312 | 1.51 | 1.44 | 2.74 µM | 1.68 | 3.46 µM | 0.496 | 1.79 µM | 1.66 | 3.02 µM | 0.331 | 1.6 | 0.86 | 2.32 | 1.52 | 2.93 µM | 1.3 | 2.57 µM
7 | O=C(CSc1nc2ccc([N+](=O)[O-])cc2[nH]1)Nc1cccc(Cl)c1 | 2.95 | 19.4 | 2.74 | > 100 | 3.06 | 13.6 µM | 1.87 | 8.17 µM | 2.26 | 9.3 µM | 2.68 | 13.1 µM | 3.34 | > 45.7 | 1.55 | 18.9 | 1.59 | 10.3 µM | 1.97 | 9.99 µM
8 | COc1c(OC(C)=O)c(OC(C)=O)cc2c1-c1ccc(OC)c(=O)cc1C(NC(C)=O)CC2 (configuration not stated) | – | > 100 | – | > 100 | – | > 100 µM | – | > 100 µM | – | 5.24 µM | – | > 100 µM | – | > 100 | – | > 100 | – | > 100 µM | – | > 100 µM
9 | CCCCCCCCCCCCOC1C(CNC(=O)C2OC3OC(C)(C)OC3C2NC(=O)CN2CCN(c3ccccn3)CC2)OC2OC(C)(C)OC21 (configuration not stated) | 1.9 | 4.69 | 1.67 | 4.56 | 1.68 | 3.1 µM | 1.88 | 3.86 µM | 4.16 | 9.1 µM | 2.53 | 7.47 µM | – | 1.86 | 2.81 | 8.61 | 1.61 | 3.05 µM | 1.42 | 2.72 µM
10 | O=C(O)CNC(=O)c1ccccc1O | – | > 100 | – | > 100 | – | > 100 µM | – | > 100 µM | – | > 100 µM | – | > 100 µM | – | > 100 | – | > 100 | – | > 100 µM | – | > 100 µM
11 | Nc1ccccc1/C=N\Nc1ccccc1 | > 100 | > 100 | 3.24 | > 100 | 4.05 | > 100 µM | > 100 | > 100 µM | > 100 | > 100 µM | > 100 | > 100 µM | 26.6 | > 100 | 5.04 | > 100 | 0.353 | > 100 µM | 2.43 | > 100 µM
